Literature values as cited in PubChem BioAssay AID1259409 (Chemical Carcinogenesis Research Information System (CCRIS), 2018).

Tested on: rodent chemically induced tumor inhibition, incidence and multiplicity
Assay: CCRIS tumor inhibitor studies
Details: Dose [Inhibitor]: 0, Promoter: NONE USED

Structure (SMILES): O.O.O.O.O.[Cd+2].[Cd+2].[Cl-].[Cl-].[Cl-].[Cl-]
- tumour outcome (control, treated, inhibition, significance) (Carcinogen: NITROSODIETHYLAMINE, 55-18-5, 1000 PPM IN DRINKING WATER BEGINNING 2 WK POST CARCINOGEN DOSE AND CONTINUING FOR DURATION OF STUDY (STUDY DURATION:, Route [Inhibitor]: ORAL, Species: MOUSE, Strain/Sex: B6C3F1/MALE, Target Tissue: Type of Lesion: LIVER: TUMOR, Dose [Carcinogen]: 5 MG/ML IN TRICAPRYLIN ONCE AT 5 WK OF AGE): 22/25 (88%), 2/25 (8%), 91%, p<0.05
- tumour outcome (control, treated, inhibition, significance) (Carcinogen: NITROSODIETHYLAMINE, 55-18-5, 1000 PPM IN DRINKING WATER BEGINNING 2 WK POST CARCINOGEN DOSE AND CONTINUING FOR DURATION OF STUDY (STUDY DURATION:, Route [Inhibitor]: ORAL, Species: MOUSE, Strain/Sex: B6C3F1/MALE, Target Tissue: Type of Lesion: LUNG: TUMOR, Dose [Carcinogen]: 5 MG/ML IN TRICAPRYLIN ONCE AT 5 WK OF AGE): 100%, 94%, 6%, not significant
- tumour outcome (control, treated, inhibition, significance) (Carcinogen: NITROSODIETHYLAMINE, 55-18-5, 1000 PPM IN DRINKING WATER BEGINNING 4 WK POST CARCINOGEN DOSE AND CONTINUING FOR DURATION OF STUDY (STUDY DURATION:, Route [Inhibitor]: ORAL, Species: MOUSE, Strain/Sex: B6C3F1/MALE, Target Tissue: Type of Lesion: LIVER: TUMOR, Dose [Carcinogen]: 5 MG/ML IN TRICAPRYLIN ONCE AT 5 WK OF AGE): 22/25 (88%), 1/25 (4%), 95%, p<0.05
- tumour outcome (control, treated, inhibition, significance) (Carcinogen: NITROSODIETHYLAMINE, 55-18-5, 1000 PPM IN DRINKING WATER BEGINNING 4 WK POST CARCINOGEN DOSE AND CONTINUING FOR DURATION OF STUDY (STUDY DURATION:, Route [Inhibitor]: ORAL, Species: MOUSE, Strain/Sex: B6C3F1/MALE, Target Tissue: Type of Lesion: LUNG: TUMOR, Dose [Carcinogen]: 5 MG/ML IN TRICAPRYLIN ONCE AT 5 WK OF AGE): 100%, 94%, 6%, not significant
- tumour outcome (control, treated, inhibition, significance) (Carcinogen: NITROSODIETHYLAMINE, 55-18-5, 1000 PPM IN DRINKING WATER BEGINNING 8 WK POST CARCINOGEN DOSE AND CONTINUING FOR DURATION OF STUDY (STUDY DURATION:, Route [Inhibitor]: ORAL, Species: MOUSE, Strain/Sex: B6C3F1/MALE, Target Tissue: Type of Lesion: LIVER: TUMOR, Dose [Carcinogen]: 5 MG/ML IN TRICAPRYLIN ONCE AT 5 WK OF AGE): 22/25 (88%), 1/25 (4%), 95%, p<0.05
- tumour outcome (control, treated, inhibition, significance) (Carcinogen: NITROSODIETHYLAMINE, 55-18-5, 1000 PPM IN DRINKING WATER BEGINNING 8 WK POST CARCINOGEN DOSE AND CONTINUING FOR DURATION OF STUDY (STUDY DURATION:, Route [Inhibitor]: ORAL, Species: MOUSE, Strain/Sex: B6C3F1/MALE, Target Tissue: Type of Lesion: LUNG: TUMOR, Dose [Carcinogen]: 5 MG/ML IN TRICAPRYLIN ONCE AT 5 WK OF AGE): 100%, 89%, 11%, not significant
- tumour outcome (control, treated, inhibition, significance) (Carcinogen: NITROSODIETHYLAMINE, 55-18-5, 1000 PPM IN DRINKING WATER BEGINNING 16 WK POST CARCINOGEN DOSE AND CONTINUING FOR DURATION OF STUDY (STUDY DURATION:, Route [Inhibitor]: ORAL, Species: MOUSE, Strain/Sex: B6C3F1/MALE, Target Tissue: Type of Lesion: LIVER: TUMOR, Dose [Carcinogen]: 5 MG/ML IN TRICAPRYLIN ONCE AT 5 WK OF AGE): 22/25 (88%), 2/25 (8%), 91%, p<0.05
- tumour outcome (control, treated, inhibition, significance) (Carcinogen: NITROSODIETHYLAMINE, 55-18-5, 1000 PPM IN DRINKING WATER BEGINNING 16 WK POST CARCINOGEN DOSE AND CONTINUING FOR DURATION OF STUDY (STUDY DURATION:, Route [Inhibitor]: ORAL, Species: MOUSE, Strain/Sex: B6C3F1/MALE, Target Tissue: Type of Lesion: LUNG: TUMOR, Dose [Carcinogen]: 5 MG/ML IN TRICAPRYLIN ONCE AT 5 WK OF AGE): 100%, 72%, 28%, p<0.05
- tumour outcome (control, treated, inhibition, significance) (Carcinogen: NITROSODIETHYLAMINE, 55-18-5, 1000 PPM IN DRINKING WATER BEGINNING 32 WK POST CARCINOGEN DOSE AND CONTINUING FOR DURATION OF STUDY (STUDY DURATION:, Route [Inhibitor]: ORAL, Species: MOUSE, Strain/Sex: B6C3F1/MALE, Target Tissue: Type of Lesion: LIVER: TUMOR, Dose [Carcinogen]: 5 MG/ML IN TRICAPRYLIN ONCE AT 5 WK OF AGE): 22/25 (88%), 6/24 (25%), 72%, p<0.05
- tumour outcome (control, treated, inhibition, significance) (Carcinogen: NITROSODIETHYLAMINE, 55-18-5, 1000 PPM IN DRINKING WATER BEGINNING 32 WK POST CARCINOGEN DOSE AND CONTINUING FOR DURATION OF STUDY (STUDY DURATION:, Route [Inhibitor]: ORAL, Species: MOUSE, Strain/Sex: B6C3F1/MALE, Target Tissue: Type of Lesion: LUNG: TUMOR, Dose [Carcinogen]: 5 MG/ML IN TRICAPRYLIN ONCE AT 5 WK OF AGE): 100%, 96%, 4%, not significant

Structure (SMILES): CC/C=C\C/C=C\C/C=C\C/C=C\C/C=C\C/C=C\CCC(=O)O
- tumour outcome (control, treated, inhibition, significance) (Carcinogen: 7,12-DIMETHYLBENZ[A]ANTHRACENE, 57-97-6, 0.5 ML 2/WK FOR 19 WK BEGINNING 1 WK POST CARCINOGEN DOSE ADMINISTERED TO RATS FED HIGH-FAT (20% CORN OIL) DIETS (STU, Route [Inhibitor]: GAVAGE, Species: RAT, Strain/Sex: SPRAGUE-DAWLEY/FEMALE, Target Tissue: Type of Lesion: MAMMARY GLAND: ADENOCARCINOMA, Dose [Carcinogen]: 5 MG ONCE AT 50 D OF AGE): 24/30 (80%), 6/24 (25%), 69%, p<0.05

Structure (SMILES): C=CC(C)(O)CCC=C(C)C (stereo unspecified)
- tumour outcome (control, treated, inhibition, significance) (Carcinogen: AZOXYMETHANE, 25843-45-2, 5 MG/G IN DIET FOR 22 WK BEGINNING 3 D POST LAST CARCINOGEN DOSE (STUDY DURATION: 25 WK), Route [Inhibitor]: ORAL, Species: RAT, Strain/Sex: F344/MALE, Target Tissue: Type of Lesion: DUODENUM: ADENOCARCINOMA, Dose [Carcinogen]: 15 MG/KG BW 2/WK FOR 3 WK): 50%, 26%, 48%, not significant
- tumour outcome (control, treated, inhibition, significance) (Carcinogen: AZOXYMETHANE, 25843-45-2, 5 MG/G IN DIET FOR 22 WK BEGINNING 3 D POST LAST CARCINOGEN DOSE (STUDY DURATION: 25 WK), Route [Inhibitor]: ORAL, Species: RAT, Strain/Sex: F344/MALE, Target Tissue: Type of Lesion: LARGE BOWEL: ADENOMATOUS POLYP, Dose [Carcinogen]: 15 MG/KG BW 2/WK FOR 3 WK): 82%, 79%, 4%, not significant

Structure (SMILES): CCCCCCCCCCCCC/C=C/[C@@H](O)[C@H](COP(=O)(O)OCC[N+](C)(C)C)NC=O
- tumour outcome (control, treated, inhibition, significance) (Carcinogen: 1,2-DIMETHYLHYDRAZINE DIHYDROCHLORIDE, 306-37-6, 0.025 G/100 G DIET FOR 28 WK BEGINNING 1 WK POST CARCINOGEN TREATMENT (STUDY DURATION: 59 WK), Route [Inhibitor]: ORAL, Species: MOUSE, Strain/Sex: CF-1/FEMALE, Target Tissue: Type of Lesion: COLON: TUMOR, Dose [Carcinogen]: 20 MG/KG BW 1/WK FOR 6 WK): 7/15 (47%), 2/10 (20%), 57%, p=0.08
- tumour outcome (control, treated, inhibition, significance) (Carcinogen: 1,2-DIMETHYLHYDRAZINE DIHYDROCHLORIDE, 306-37-6, 0.05 G/100 G DIET FOR 28 WK BEGINNING 1 WK POST CARCINOGEN TREATMENT (STUDY DURATION: 59 WK), Route [Inhibitor]: ORAL, Species: MOUSE, Strain/Sex: CF-1/FEMALE, Target Tissue: Type of Lesion: COLON: TUMOR, Dose [Carcinogen]: 20 MG/KG BW 1/WK FOR 6 WK): 7/15 (47%), 3/14 (21%), 55%, p=0.08
- tumour outcome (control, treated, inhibition, significance) (Carcinogen: 1,2-DIMETHYLHYDRAZINE DIHYDROCHLORIDE, 306-37-6, 0.1 G/100 G DIET FOR 28 WK BEGINNING 1 WK POST CARCINOGEN TREATMENT (STUDY DURATION: 59 WK), Route [Inhibitor]: ORAL, Species: MOUSE, Strain/Sex: CF-1/FEMALE, Target Tissue: Type of Lesion: COLON: TUMOR, Dose [Carcinogen]: 20 MG/KG BW 1/WK FOR 6 WK): 7/15 (47%), 2/10 (20%), 57%, p=0.08
